# Test results reported in patent publication US12139487B2, “Compounds and uses thereof” (Foghorn Therapeutics Inc., priority 2022, dated 2024).
# pIC50: −log10 of the molar value.
# Tested on: BRM-dependent transcription (BRG1 mutant lung cancer cell line A549)
# Assay: BRM-dependent transcription, MMTV luciferase reporter in BRG1 mutant A549 cells
# Assay type: cell-based
# Settings: Table 11; for pIC50: A549-MMTV luciferase reporter, dexamethasone induced, 6 hours; for Ratio (MDA-MMTV IC50 (μM) divided by A549-MMTV IC50 (μM)): MMTV luciferase reporter cell lines, selectivity BRG1/BRM
# In short: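 A549 (BRG1-mutant) cells engineered with a BRM-dependent MMTV luciferase reporter; transcription induced with dexamethasone in presence of compound at various concentrations. Luminescence read 6 h after stimulation.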
Structure (SMILES),"pIC50 (Homo sapiens, A549, 6 h)",Ratio (MDA-MMTV IC50 (μM) divided by A549-MMTV IC50 (μM)),pIC50
COc1nc([C@@H](F)CF)ccc1-c1ccc2cnc(CNC(=O)c3cc(Cl)c4c(c3)S(=O)(=O)[C@@H](F)CCO4)cc2n1 [Compound 382],8.02,40.88,–
O=C(NCc1cc2nc(-n3cc(F)c(OC4CC4)n3)ccc2cn1)c1cc(F)c2c(c1)S(=O)(=O)[C@@H](F)CCO2 [Compound 386],7.59,23.22,–
C[C@H](F)c1ccc(-c2ccc3cnc(CNC(=O)c4cc(F)c5c(c4)S(=O)(=O)[C@@H](F)CCO5)cc3n2)c(OC(F)F)n1 [Compound 389],8.49,26.77,–
COCCOc1cnc2c(c1)CCCN2c1ccc2cnc(CNC(=O)c3cc(Cl)c4c(c3)S(=O)(=O)[C@@H](F)COC4)cc2n1 [Compound 412],7.92,21.10,–
CCOc1nc([C@@H](F)CF)ccc1-c1ccc2cnc(CNC(=O)c3cc(Br)c4c(c3)S(=O)(=O)[C@@H](F)COC4)cc2n1 [Compound 456],–,40.89,8.01
COc1nc(-c2ccc3cnc(CNC(=O)c4cc(Cl)c5c(c4)S(=O)(=O)[C@@H](F)CCO5)cc3n2)ccc1C(F)F [Compound 360],7.70,23.20,–
O=C(NCc1cc2nc(-c3ccc([C@H](F)CF)nc3OC(F)F)ccc2cn1)c1cc(F)c2c(c1)S(=O)(=O)[C@@H](F)CCO2 [Compound 392],8.33,24.22,–
O=C(NCc1cc2nc(-c3cccc(C4CC4)n3)ccc2cn1)c1cc(C(F)F)c2c(c1)S(=O)(=O)[C@@H](F)COC2 [Compound 429],7.77,32.94,–
[2H]C([2H])([2H])Oc1ccc(-c2ccc3cnc(CNC(=O)c4cc(Cl)c5c(c4)S(=O)(=O)[C@@H](F)COC5)cc3n2)nc1C1CC1 [Compound 523],7.79,26.20,–
O=C(NCc1cc2nc(-c3ccc(C(F)F)c(N4CC(F)C4)n3)ccc2cn1)c1cc(F)c2c(c1)S(=O)(=O)[C@@H](F)CCO2 [Compound 441],8.05,21.14,–
COCCOc1cnc2c(c1)CCCN2c1ccc2cnc(CNC(=O)c3cc(Br)c4c(c3)S(=O)(=O)[C@@H](F)COC4)cc2n1 [Compound 427],7.69,32.84,–
O=C(NCc1cc2nc(-c3ccc([C@@H](F)C(F)F)c(C4CC4)n3)ccc2cn1)c1cc(Br)c2c(c1)S(=O)(=O)[C@@H](F)COC2 [Compound 483],7.95,28.21,–
COC1(c2cccc(-c3ccc4cnc(CNC(=O)c5cc(F)c6c(c5)S(=O)(=O)[C@@H](F)CCO6)cc4n3)n2)CC1 [Compound 403],7.85,27.49,–
CCOc1nc(C(F)F)ncc1-c1ccc2cnc(CNC(=O)c3cc(C(F)F)c4c(c3)S(=O)(=O)[C@@H](F)COC4)cc2n1 [Compound 510],7.84,22.06,–
C[C@@H]1CCN1c1cnc2c(-c3ccc4cnc(CNC(=O)c5cc(F)c6c(c5)S(=O)(=O)[C@@H](F)COC6)cc4n3)cccc2c1 [Compound 496],–,21.18,8.80
CCOc1nc([C@@H](F)CF)ccc1-c1ccc2cnc(CNC(=O)c3cc(C(F)F)c4c(c3)S(=O)(=O)[C@@H](F)COC4)cc2n1 [Compound 457],–,33.28,8.14
CCOc1nc([C@@H](F)CF)ccc1-c1ccc2cnc(CNC(=O)c3cc(C(F)F)c4c(c3)S(=O)(=O)[C@@H](F)COC4)cc2n1 [Compound 515],–,23.82,7.78
O=C(NCc1cc2nc(-c3cccc(C(F)F)n3)ccc2cn1)c1cc(F)c2c(c1)S(=O)(=O)[C@@H](F)CCO2 [Compound 334],7.72,26.38,–
COCCOc1cnc2c(c1)OCCN2c1ccc2cnc(CNC(=O)c3cc(Br)c4c(c3)S(=O)(=O)[C@@H](F)CCO4)cc2n1 [Compound 424],7.63,31.82,–
O=C(NCc1cc2nc(-c3cccc(C4CC4)n3)ccc2cn1)c1ccc2c(c1)S(=O)(=O)[C@@H](F)CCOC2 [Compound 364],8.72,22.21,–
O=C(NCc1cc2nc(-c3cccc(OC(F)(F)F)n3)ccc2cn1)c1cc(F)c2c(c1)S(=O)(=O)[C@@H](F)CCO2 [Compound 361],7.75,22.13,–

Structure (SMILES),"pIC50 (Homo sapiens, A549, 6 h)",Ratio (MDA-MMTV IC50 (μM) divided by A549-MMTV IC50 (μM)),pIC50
[2H]C([2H])([2H])Oc1nc([C@H](F)CF)ccc1-c1ccc2cnc(CNC(=O)c3cc(F)c4c(c3)S(=O)(=O)[C@@H](F)CCO4)cc2n1 [Compound 394],8.04,24.90,–
COc1nc([C@@](C)(F)C(F)F)ccc1-c1ccc2cnc(CNC(=O)c3cc(F)c4c(c3)S(=O)(=O)[C@@H](F)CCOC4)cc2n1 [Compound 368],8.66,17.34,–
C[C@@H]1CN(c2cccc(-c3ccc4cnc(CNC(=O)c5cc(C#N)c6c(c5)S(=O)(=O)[C@@H](F)CCO6)cc4n3)n2)C[C@H](C)O1 [Compound 372],8.12,21.84,–
O=C(NCc1cc2nc(-c3ccc([C@@H](F)C(F)F)c(C4CC4)n3)ccc2cn1)c1cc(C(F)F)c2c(c1)S(=O)(=O)[C@@H](F)COC2 [Compound 476],7.65,21.45,–
COc1ccc(-c2ccc3cnc(CNC(=O)c4cc(Cl)c5c(c4)S(=O)(=O)[C@@H](F)CCO5)cc3n2)nc1C1CC1(F)F (stereo partly shown) [Compound 369],7.77,26.85,–
[2H]C([2H])([2H])C([2H])([2H])Oc1nc([C@H](F)CF)ccc1-c1ccc2cnc(CNC(=O)c3cc(C(F)F)c4c(c3)S(=O)(=O)[C@@H](F)COC4)cc2n1 [Compound 478],7.98,33.55,–
C[C@@H]1CN(c2cccc(-c3ccc4cnc(CNC(=O)c5cc(C6CC6)c6c(c5)S(=O)(=O)[C@@H](F)CCO6)cc4n3)n2)C[C@H](C)O1 [Compound 350],7.77,25.08,–
CCOc1cccc(-c2ccc3cnc(CNC(=O)c4cc(F)c5c(c4)S(=O)(=O)[C@@H](F)CCO5)cc3n2)n1 [Compound 358],7.82,27.40,–
COCCOc1cnc2c(c1)OCCN2c1ccc2cnc(CNC(=O)c3cc(Br)c4c(c3)S(=O)(=O)[C@@H](F)COC4)cc2n1 [Compound 426],7.99,25.72,–
[2H]C([2H])([2H])Oc1ccc(-c2ccc3cnc(CNC(=O)c4cc(Br)c5c(c4)S(=O)(=O)[C@@H](F)COC5)cc3n2)nc1C1CC1(F)F (stereo partly shown) [Compound 480],8.03,38.09,–
O=C(NCc1cc2nc(-c3cccc(C4CC4(F)F)n3)ccc2cn1)c1cc(F)c2c(c1)S(=O)(=O)[C@@H](F)CCO2 (stereo partly shown) [Compound 336],7.82,22.47,–
COc1ccccc1-c1ccc2cnc(CNC(=O)c3cc(F)c4c(c3)S(=O)(=O)[C@@H](F)CCO4)cc2n1 [Compound 338],7.85,21.68,–
[2H]C([2H])([2H])C([2H])([2H])Oc1nc([C@H](C)F)ccc1-c1ccc2cnc(CNC(=O)c3cc(F)c4c(c3)S(=O)(=O)[C@@H](F)CCO4)cc2n1 [Compound 421],8.10,23.62,–
CCOc1nc(C(C)(F)F)ccc1-c1ccc2cnc(CNC(=O)c3cc(Cl)c4c(c3)S(=O)(=O)[C@@H](F)COC4)cc2n1 [Compound 445],7.67,22.07,–
COCCOc1cnc2c(c1)OCCN2c1ccc2cnc(CNC(=O)c3cc(Cl)c4c(c3)S(=O)(=O)[C@@H](F)CCO4)cc2n1 [Compound 414],7.82,22.34,–
COCCOc1cnc2c(-c3ccc4cnc(CNC(=O)c5cc(Cl)c6c(c5)S(=O)(=O)[C@@H](F)COC6)cc4n3)cccc2c1 [Compound 513],7.86,27.47,–
C[C@@H](CF)c1ccc2c(n1)N(c1ccc3cnc(CNC(=O)c4cc(F)c5c(c4)S(=O)(=O)[C@@H](F)CCO5)cc3n1)CCO2 [Compound 351],7.70,25.07,–
CCOc1nc([C@H](F)CF)ccc1-c1ccc2cnc(CNC(=O)c3cc(Cl)c4c(c3)S(=O)(=O)[C@@H](F)COC4)cc2n1 [Compound 481],–,50.79,7.99
COc1nc(C(F)(F)F)ccc1-c1ccc2cnc(CNC(=O)c3cc(Cl)c4c(c3)S(=O)(=O)[C@@H](F)CCO4)cc2n1 [Compound 348],7.86,30.79,–
O=C(NCc1cc2nc(-c3ccc([C@H](F)CF)c(C4CC4)n3)ccc2cn1)c1cc(F)c2c(c1)S(=O)(=O)[C@@H](F)CCO2 [Compound 411],8.07,24.27,–
